Structures can show the parent of a compound that is named as a salt.
molecular target: human recombinant KDM1A/CoREST protein (Homo sapiens, UniProt O60341); assay: Assay of enzyme inhibition of KDM1A (LSD1), TR-FRET
Experimental: The intensity of the light emission is proportional to the level of biotinylated reaction product. The complex of human recombinant KDM1A/CoREST protein was produced in E. coli as separate proteins and co-purified as previously described.
Demethylase reaction was started by the addition of 50 nM histone H3K4 monomethylated.
The resulting mixture was incubated in the dark for 1 h at RT.
The IC50 was calculated using GraphPad Software.

`Cn1c(C(=O)Nc2ccccc2COc2ccc(OCC3CNC3)cc2)cc2sccc21` [Example 40, N-[2-[[4-(azetidin-3-ylmethoxy)phenoxy]methyl]phenyl]-4-methyl-thieno[3,2-b]pyrrole-5-carboxamide; 2,2,2-trifluoroacetic acid] and `Cn1c(C(=O)Nc2cccc(COc3ccc(OCC4CNC4)cc3)c2)cc2sccc21` [Example 30, N-[3-[[4-(azetidin-3-ylmethoxy)phenoxy]methyl]phenyl]-4-methyl-thieno[3,2-b]pyrrole-5-carboxamide] cannot be ordered by IC50: less than 10 µM for the first, less than 10 µM for the second.

`Cn1c(C(=O)Nc2cccc(COc3ccc(O[C@H]4CC[C@H](N)CC4)cc3)c2)cc2sccc21` [Example 29, N-[3-[[4-(trans-4-aminocyclohexoxy)phenoxy]methyl]phenyl]-4-methyl-thieno[3,2-b]pyrrole-5-carboxamide] and `Cn1c(C(=O)Nc2cccc(COc3ccc(O[C@H]4CC[C@@H](N)CC4)cc3)c2)cc2sccc21` [Example 34, N-[3-[[4-(cis-4-aminocyclohexoxy)phenoxy]methyl]phenyl]-4-methyl-thieno[3,2-b]pyrrole-5-carboxamide] cannot be ordered by IC50: less than 10 µM for the first, less than 10 µM for the second.

`Cn1c(C(=O)Nc2ccccc2COc2ccc(NC3CCNCC3)cc2)cc2sccc21` [Example 39, 4-methyl-N-[2-[[4-(4-piperidylamino)phenoxy]methyl]phenyl]thieno[3,2-b]pyrrole-5-carboxamide; 2,2,2-trifluoroacetic acid] and `Cn1c(C(=O)Nc2ccccc2COc2ccc(N3CCNCC3)cc2)cc2sccc21` [Example 37, 4-methyl-N-[2-[(4-piperazin-1-ylphenoxy)methyl]phenyl]thieno[3,2-b]pyrrole-5-carboxamide] cannot be ordered by IC50: less than 10 µM for the first, less than 10 µM for the second.

`Cn1c(C(=O)Nc2cccc(COc3cccc(OC4CCNCC4)c3)c2)cc2sccc21` [Example 58, 4-Methyl-N-[3-[[3-(4-piperidyloxy)phenoxy]methyl]phenyl]thieno[3,2-b]pyrrole-5-carboxamide hydrochloride] and `Cn1c(C(=O)Nc2cccc(COc3ccc(OC4CCCNCC4)cc3)c2)cc2sccc21` (stereo not shown) [Example 33, N-[3-[[4-(azepan-4-yloxy)phenoxy]methyl]phenyl]-4-methyl-thieno[3,2-b]pyrrole-5-carboxamide] cannot be ordered by IC50: less than 10 µM for the first, less than 10 µM for the second.

`CCn1c(C(=O)Nc2ccccc2COc2ccc(OC3CCNCC3)cc2)cc2ccsc21` [Example 66, 6-Ethyl-N-[2-[[4-(4-piperidyloxy)phenoxy]methyl]phenyl]thieno[2,3-b]pyrrole-5-carboxamide hydrochloride] and `Cn1c(C(=O)Nc2ccccc2COc2ccc(OC3CCNCC3)cc2)cc2ccsc21` [Example 67, 6-Methyl-N-[2-[[4-(4-piperidyloxy)phenoxy]methyl]phenyl]thieno[2,3-b]pyrrole-5-carboxamide] cannot be ordered by IC50: less than 10 µM for the first, less than 10 µM for the second.

`Cn1c(C(=O)Nc2ccccc2COc2ccc(OC3CCCNC3)cc2)cc2sccc21` (stereo not shown) [Example 27, 4-methyl-N-[2-[[4-(3-piperidyloxy)phenoxy]methyl]phenyl]thieno[3,2-b]pyrrole-5-carboxamide] and `Cn1c(C(=O)Nc2cccc(COc3ccc(OC4CCCNC4)cc3)c2)cc2sccc21` (stereo not shown) [Example 28, 4-methyl-N-[3-[[4-(3-piperidyloxy)phenoxy]methyl]phenyl]thieno[3,2-b]pyrrole-5-carboxamide] cannot be ordered by IC50: less than 10 µM for the first, less than 10 µM for the second.

`Cn1c(C(=O)Nc2cccc(COc3ccc(OC4CCNC4)cc3)c2)cc2sccc21` (stereo not shown) [Example 32, 4-methyl-N-[3-[(4-pyrrolidin-3-yloxyphenoxy)methyl]phenyl]thieno[3,2-b]pyrrole-5-carboxamide hydrochloride] and `Cn1c(C(=O)Nc2cccc(COc3ccc(OCC4CCNCC4)cc3)c2)cc2sccc21` [Example 26, 4-methyl-N-[3-[[4-(4-piperidylmethoxy)phenoxy]methyl]phenyl]thieno[3,2-b]pyrrole-5-carboxamide] cannot be ordered by IC50: less than 10 µM for the first, less than 10 µM for the second.

`COCc1cccc(NC(=O)c2cc3sccc3n2C)c1COc1ccc(OC[C@@H]2CCNC2)cc1` [Example 42, N-[3-(methoxymethyl)-2-[[4-[[(3R)-pyrrolidin-3-yl]methoxy]phenoxy]methyl]phenyl]-4-methyl-thieno[3,2-b]pyrrole-5-carboxamide hydrochloride] and `COCc1cccc(NC(=O)c2cc3sccc3n2C)c1COc1ccc(OC2CCNCC2)cc1` [Example 43, N-[3-(methoxymethyl)-2-[[4-(4-piperidyloxy)phenoxy]methyl]phenyl]-4-methyl-thieno[3,2-b]pyrrole-5-carboxamide hydrochloride] cannot be ordered by IC50: less than 10 µM for the first, less than 10 µM for the second.

`CCn1c(C(=O)Nc2cccc(COC)c2)cc2sccc21` [Example 45, 4-ethyl-N-[3-(methoxymethyl)phenyl]thieno[3,2-b]pyrrole-5-carboxamide] and `COCc1cccc(NC(=O)c2cc3ccsc3n2C)c1` [Example 48, N-[3-(methoxymethyl)phenyl]-6-methyl-thieno[2,3-b]pyrrole-5-carboxamide] cannot be ordered by IC50: less than 10 µM for the first, less than 25 µM for the second.

`CN1CCC(Oc2ccc(OCc3ccc(NC(=O)c4cc5sccc5n4C)cc3)cc2)CC1` [Example 23, 4-methyl-N-[4-[[4-[(1-methyl-4-piperidyl)oxy]phenoxy]methyl]phenyl]thieno[3,2-b]pyrrole-5-carboxamide] and `Cn1c(C(=O)Nc2cccc(COc3ccc(O[C@@H]4C[C@H]5CC[C@@H](C4)N5)cc3)c2)cc2sccc21` [Example 25, N-[3-[[4-[[(1S,5R)-8-azabicyclo[3.2.1]octan-3-yl]oxy]phenoxy]methyl]phenyl]-4-methyl-thieno[3,2-b]pyrrole-5-carboxamide] cannot be ordered by IC50: less than 10 µM for the first, less than 10 µM for the second.

`Cn1c(C(=O)Nc2ccccc2COc2ccc(CNC(=N)N)cc2)cc2sccc21` [Example 60, N-[2-[[4-(Guanidinomethyl)phenoxy]methyl]phenyl]-4-methyl-thieno[3,2-b]pyrrole-5-carboxamide; trifluoroacetic acid] and `Cn1c(C(=O)Nc2cccc(COc3ccc(CNC(=N)N)cc3)c2)cc2sccc21` [Example 59, N-[3-[[4-(Guanidinomethyl)phenoxy]methyl]phenyl]-4-methyl-thieno[3,2-b]pyrrole-5-carboxamide; trifluoroacetic acid] cannot be ordered by IC50: less than 10 µM for the first, less than 10 µM for the second.

`COCc1cccc(NC(=O)c2cc3sccc3n2C)c1COc1ccc(OC2CCCNCC2)cc1` (stereo not shown) [Example 44, N-[2-[[4-(azepan-4-yloxy)phenoxy]methyl]-3-(methoxymethyl)phenyl]-4-methyl-thieno[3,2-b]pyrrole-5-carboxamide hydrochloride] and `Cn1c(C(=O)Nc2ccccc2COc2ccc(OC3CCNCC3)cn2)cc2sccc21` [Example 56, 4-Methyl-N-[2-[[5-(4-piperidyloxy)-2-pyridyl]oxymethyl]phenyl]thieno[3,2-b]pyrrole-5-carboxamide hydrochloride] cannot be ordered by IC50: less than 10 µM for the first, less than 25 µM for the second.

`Cn1c(C(=O)Nc2ccccc2COc2ccc(O[C@@H]3C[C@H]4CC[C@@H](C3)N4)cc2)cc2sccc21` [Example 24, N-[2-[[4-[[(1S,5R)-8-azabicyclo[3.2.1]octan-3-yl]oxy]phenoxy]methyl]phenyl]-4-methyl-thieno[3,2-b]pyrrole-5-carboxamide] and `CNCCCOc1ccc(OCc2ccccc2NC(=O)c2cc3sccc3n2C)cc1` [Example 31, 4-methyl-N-[2-[[4-(3-methylaminopropoxy)phenoxy]methyl]phenyl]thieno[3,2-b]pyrrole-5-carboxamide hydrochloride] cannot be ordered by IC50: less than 10 µM for the first, less than 10 µM for the second.

`Cn1c(C(=O)Nc2ccccc2C(=O)Nc2ccc(OC3CCNCC3)cc2)cc2sccc21` [Example 36, 4-methyl-N-[2-[[4-(4-piperidyloxy)phenyl]carbamoyl]phenyl]thieno[3,2-b]pyrrole-5-carboxamide] and `Cn1c(C(=O)Nc2ccccc2COc2cccc(OC3CCNCC3)c2)cc2ccsc21` [Example 64, 6-Methyl-N-[2-[[3-(4-piperidyloxy)phenoxy]methyl]phenyl]thieno[2,3-b]pyrrole-5-carboxamide] cannot be ordered by IC50: less than 10 µM for the first, less than 10 µM for the second.

`CCn1c(C(=O)Nc2ccccc2COc2cccc(OC3CCNCC3)c2)cc2ccsc21` [Example 65, 6-Ethyl-N-[2-[[3-(4-piperidyloxy)phenoxy]methyl]phenyl]thieno[2,3-b]pyrrole-5-carboxamide] and `Cn1c(C(=O)Nc2ccccc2COc2ccc(OCC3CCNC3)cc2)cc2ccsc21` (stereo not shown) [Example 68, 6-Methyl-N-[2-[[4-(pyrrolidin-3-ylmethoxy)phenoxy]methyl]phenyl]thieno[2,3-b]pyrrole-5-carboxamide hydrochloride] cannot be ordered by IC50: less than 10 µM for the first, less than 10 µM for the second.

`Cn1c(C(=O)Nc2cccc(COc3ccncc3)c2)cc2sccc21` [Example 22, 4-methyl-N-[3-(4-pyridyloxymethyl)phenyl]thieno[3,2-b]pyrrole-5-carboxamide] and `CSCc1cccc(NC(=O)c2cc3sccc3n2C)c1` [Example 46, 4-methyl-N-[3-(methylsulfanylmethyl)phenyl]thieno[3,2-b]pyrrole-5-carboxamide] cannot be ordered by IC50: less than 10 µM for the first, less than 10 µM for the second.

`Cn1c(C(=O)Nc2ccccc2COc2ccc(CN3CCC4(CCNCC4)C3)cc2)cc2sccc21` [Example 41, N-[2-[[4-(2,8-diazaspiro[4.5]decan-2-ylmethyl)phenoxy]methyl]phenyl]-4-methyl-thieno[3,2-b]pyrrole-5-carboxamide] and `Cn1c(C(=O)Nc2ccccc2OCC2CCNCC2)cc2sccc21` [Example 57, 4-Methyl-N-[2-(4-piperidylmethoxy)phenyl]thieno[3,2-b]pyrrole-5-carboxamide hydrochloride] cannot be ordered by IC50: less than 10 µM for the first, less than 50 µM for the second.
